Source: PMC12635268, “Novel antimicrobial peptides and peptide-microbiome crosstalk in Appalachian salamander skin” (NPJ Biofilms and Microbiomes, 2025)
Values after ≈ are worked out from the molar mass of the structure shown. Peptide text beside a SMILES is read from it.

Experiments:
[1] = test system: P. aeruginosa PA01; assay: microbe, parasite or virus in culture; type: cell-based; conditions: 20 h
Description: (§1) Antimicrobial susceptibility testing of the 20 synthesized peptides against 17 bacterial strains of clinical relevance in the ESKAPEE panel was conducted using minimum inhibitory concentration (MIC) assays following the broth microdilution method outlined by Parker et al.[91]. The ESKAPEE panel is comprised of fourteen American Type Culture Collection (ATCC) strains and three Multidrug Resistant Organism Repository and Surveillance Network (MRSN) bacterial strains. These strains represent at least one drug-susceptible strain and one drug-resistant strain for each bacterium to assess drug efficacy across various resistance mechanisms. This panel is comprised of the following bacterial species and strains: E. faecium (ATCC 19434, ATCC 49224), S. aureus (ATCC 25923, ATCC 43300), K. pneumoniae (ATCC 700603, ATCC 13883, MRSN 1320), A. baumannii (ATCC 17978, ATCC 19606, MRSN 959), P. aeruginosa (ATCC 15692, ATCC 27853, MRSN 5519), E. cloacae (ATCC 13047, ATCC 35549), and E. coli (ATCC 35218, ATCC 43888). Bacteria were grown in cation-adjusted Mueller-Hinton broth (CAMHB) to achieve a final inoculum of 1 × 10⁵ CFU/mL. CAMHB is selected for its batch-to-batch reproducibility, low levels of antimicrobial inhibitors, and ability to support the growth of most bacterial pathogens.
(§2) Briefly, lyophilized peptides were dissolved in 0.2% TFA + 0.4% BSA in water to 2.56 mg/mL, ultrasonicated for 20 min, diluted 10-fold into CAMHB, and then serially diluted 2-fold in 0.02% TFA + 0.04% BSA in CAMHB and assayed at a concentration of 0.25 to 128 μg/mL. Assays were set up using the Tecan Freedom EVO liquid handling robot and software (Tecan, Switzerland) with 50 μL of bacterial inoculum and 50 μL of peptide transferred into round-bottom 96-well microtiter plates. Each plate assay was performed in duplicate and incubated at 37 °C for 20 h without agitation. Bacterial growth was assessed using the BIOMIC V3 Image Analysis system (Giles Scientific, USA) and the MIC values were determined visually according to the Clinical and Laboratory Standards Institute (CLSI) guidelines.

[2] = test system: S. aureus ATCC 43300; assay: microbe, parasite or virus in culture; conditions: S. aureus 43300; CAMHB, 1 × 10⁵ CFU/mL, 0.25 to 128 μg/mL, 37 °C 20 h, duplicate, read visually (CLSI)
Description: as §1, §2

[3] = test system: P. aeruginosa MRSN 5519; assay: microbe, parasite or virus in culture; conditions: P. aeruginosa 5519; CAMHB, 1 × 10⁵ CFU/mL, 0.25 to 128 μg/mL, 37 °C 20 h, duplicate, read visually (CLSI)
Description: as §1, §2

[4] = test system: S. aureus ATCC 25923; assay: microbe, parasite or virus in culture
Description: as §1, §2

[5] = test system: E. cloacae ATCC 13047; assay: microbe, parasite or virus in culture; conditions: E. cloacae 13047; CAMHB, 1 × 10⁵ CFU/mL, 0.25 to 128 μg/mL, 37 °C 20 h, duplicate, read visually (CLSI)
Description: as §1, §2

[6] = test system: E. coli ATCC 35218; assay: microbe, parasite or virus in culture; conditions: ATCC 35218, 20 h
Description: as §1, §2

[7] = test system: E. faecium ATCC 49224; assay: microbe, parasite or virus in culture; conditions: E. faecium 49224; CAMHB, 1 × 10⁵ CFU/mL, 0.25 to 128 μg/mL, 37 °C 20 h, duplicate, read visually (CLSI)
Description: as §1, §2

[8] = test system: K. pneumoniae ATCC 700603; assay: microbe, parasite or virus in culture; conditions: K. pneumoniae 700603; CAMHB, 1 × 10⁵ CFU/mL, 0.25 to 128 μg/mL, 37 °C 20 h, duplicate, read visually (CLSI)
Description: as §1, §2

[9] = test system: K. pneumoniae ATCC 13883; assay: microbe, parasite or virus in culture; conditions: K. pneumoniae 13883; CAMHB, 1 × 10⁵ CFU/mL, 0.25 to 128 μg/mL, 37 °C 20 h, duplicate, read visually (CLSI)
Description: as §1, §2

[10] = test system: E. faecium ATCC 19434; assay: microbe, parasite or virus in culture; conditions: E. faecium 19434; CAMHB, 1 × 10⁵ CFU/mL, 0.25 to 128 μg/mL, 37 °C 20 h, duplicate, read visually (CLSI)
Description: as §1, §2

[11] = test system: E. coli ATCC 43888; assay: microbe, parasite or virus in culture; conditions: ATCC 43888, 20 h
Description: as §1, §2

[12] = test system: P. aeruginosa ATCC 27853; assay: microbe, parasite or virus in culture
Description: as §1, §2

[13] = test system: A. baumannii ATCC 19606; assay: microbe, parasite or virus in culture; conditions: A. baumannii 19606; CAMHB, 1 × 10⁵ CFU/mL, 0.25 to 128 μg/mL, 37 °C 20 h, duplicate, read visually (CLSI)
Description: as §1, §2

[14] = test system: A. baumannii ATCC 17978; assay: microbe, parasite or virus in culture; conditions: A. baumannii 17978; CAMHB, 1 × 10⁵ CFU/mL, 0.25 to 128 μg/mL, 37 °C 20 h, duplicate, read visually (CLSI)
Description: as §1, §2

[15] = test system: E. cloacae ATCC 35549; assay: microbe, parasite or virus in culture; conditions: E. cloacae 35549; CAMHB, 1 × 10⁵ CFU/mL, 0.25 to 128 μg/mL, 37 °C 20 h, duplicate, read visually (CLSI)
Description: as §1, §2

[16] = test system: K. pneumoniae 4640; conditions: K. pneumoniae 4640; CAMHB, 1 × 10⁵ CFU/mL, 0.25 to 128 μg/mL, 37 °C 20 h, duplicate, read visually (CLSI)
[17] = parameters: method as in Biomatik (vendor); conditions: 1.0 mg peptide in 1.0 ml solvent; peptides synthesized by Biomatik; ref Biomatik (vendor); cited from earlier work
[18] = test system: P. aeruginosa PA01 (Si); assay: microbe, parasite or virus in culture; type: cell-based; conditions: Si
From the text: Supplement 41522_2025_837_MOESM13_ESM.xlsx, sheet "Table_S13_ESKAPEE-MIC" | column: Bacterial MIC (µg/mL)

[19] = test system: A. baumannii 5075; conditions: CAMHB, 1 × 10⁵ CFU/mL, 0.25 to 128 μg/mL, 37 °C 20 h, duplicate, read visually (CLSI)

Compound | MIC [1] | MIC [2] | MIC [3] | MIC [5] | Bacterial MIC [6] | MIC [6] | MIC [7] | MIC [8] | MIC [9] | MIC [10] | Bacterial MIC [11] | MIC [13] | MIC [14] | MIC [15] | MIC [16] | Suggest solvent (solubility) [17] | Bacterial MIC [18] | MIC [19] | further results
CC[C@H](C)[C@H](NC(=O)[C@H](CO)NC(=O)[C@H](CO)NC(=O)[C@H](Cc1ccccc1)NC(=O)[C@H](CS)NC(=O)CNC(=O)CNC(=O)[C@H](CCCNC(=N)N)NC(=O)[C@H](CCCNC(=N)N)NC(=O)[C@H](Cc1ccc(O)cc1)NC(=O)[C@H](CS)NC(=O)[C@H](CC(N)=O)NC(=O)[C@H](Cc1c[nH]c2ccccc12)NC(=O)[C@@H]1CCCN1C(=O)[C@H](CCCNC(=N)N)NC(=O)[C@H](C)NC(=O)[C@H](CCCNC(=N)N)NC(=O)[C@H](CCCNC(=N)N)NC(=O)[C@@H](NC(=O)[C@H](CCCNC(=N)N)NC(=O)[C@@H](NC(=O)[C@H](CCCNC(=N)N)NC(=O)[C@H](CCCCN)NC(=O)[C@@H](N)CC(C)C)[C@@H](C)O)C(C)C)C(=O)NCC(=O)N[C@@H](CO)C(=O)N[C@@H](CC(C)C)C(=O)N[C@H](C(=O)N1CCC[C@H]1C(=O)N[C@H](C(=O)O)C(C)C)[C@@H](C)O [Pcin-CATH3] (H-LKRTRVRRARPWNCYRRGGCFSSIGSLTPV-OH; N-terminus and C-terminus assumed) | 32 µg/mL (≈ 9.16 µM) | >128 µg/mL | >128 µg/mL | >128 µg/mL | 128 µg/mL | >128 µg/mL | >128 µg/mL | >128 µg/mL | >128 µg/mL | >128 µg/mL | 64 µg/mL | 64 µg/mL (≈ 18.3 µM) | 64 µg/mL (≈ 18.3 µM) | >128 µg/mL | >128 µg/mL | 1.0mg peptide soluble in 1.0ml H2O | 32 µg/mL | 16 µg/mL (≈ 4.58 µM) | MIC ([4]; S. aureus 25923, CAMHB, 1 × 10⁵ CFU/mL, 0.25 to 128 μg/mL, 37 °C 20 h, duplicate, read visually (CLSI)): >128 µg/mL; MIC ([12]; P. aeruginosa 27853, CAMHB, 1 × 10⁵ CFU/mL, 0.25 to 128 μg/mL, 37 °C 20 h, duplicate, read visually (CLSI)): >128 µg/mL
CC[C@H](C)[C@H](NC(=O)[C@H](CO)NC(=O)[C@H](Cc1ccc(O)cc1)NC(=O)[C@H](CS)NC(=O)CNC(=O)[C@H](C)NC(=O)[C@H](CCCNC(=N)N)NC(=O)[C@H](CCCNC(=N)N)NC(=O)[C@H](Cc1ccc(O)cc1)NC(=O)[C@H](CS)NC(=O)[C@H](CCCCN)NC(=O)[C@H](Cc1c[nH]c2ccccc12)NC(=O)[C@@H]1CCCN1C(=O)[C@H](CCCNC(=N)N)NC(=O)[C@H](C)NC(=O)[C@H](CCCNC(=N)N)NC(=O)[C@H](CCCNC(=N)N)NC(=O)[C@@H](NC(=O)[C@H](CCCNC(=N)N)NC(=O)[C@@H](NC(=O)[C@H](CCCNC(=N)N)NC(=O)[C@H](CCCCN)NC(=O)[C@@H](N)CO)[C@@H](C)O)C(C)C)C(=O)N[C@H](C(=O)NCC(=O)N[C@@H](CCSC)C(=O)N[C@@H](Cc1ccccc1)C(=O)N[C@@H](CCCCN)C(=O)N[C@@H](CCCCN)C(=O)N[C@@H](CO)C(=O)O)[C@@H](C)CC [Pcin-CATH5] (H-SKRTRVRRARPWKCYRRAGCYSIIGMFKKS-OH; N-terminus and C-terminus assumed) | 16 µg/mL (≈ 4.37 µM) | 64 µg/mL (≈ 17.5 µM) | >128 µg/mL | >128 µg/mL | 16 to 32 µg/mL | 32 µg/mL (≈ 8.74 µM) | 64 µg/mL (≈ 17.5 µM) | >128 µg/mL | >128 µg/mL | 64 µg/mL (≈ 17.5 µM) | 16 µg/mL | 8 µg/mL (≈ 2.18 µM) | 8 µg/mL (≈ 2.18 µM) | >128 µg/mL | >128 µg/mL | 1.0mg peptide soluble in 1.0ml H2O | 8 to 16 µg/mL | 4 µg/mL (≈ 1.09 µM) | Bacterial MIC ([4]; ATCC 25923, 20 h): 128 µg/mL; MIC ([4]; ATCC 25923, 20 h): >128 µg/mL; MIC ([12]; ATCC 27853, 20 h): >128 µg/mL
